Experimental data reported in ChEMBL document CHEMBL1124342, “N6-bicycloalkyladenosines with unusually high potency and selectivity for the adenosine A1 receptor” (J Med Chem, 1989).

Target: T1, Adenosine receptor A1 (Rattus norvegicus, UniProt P25099)
T1 sequence (P25099 whole entry): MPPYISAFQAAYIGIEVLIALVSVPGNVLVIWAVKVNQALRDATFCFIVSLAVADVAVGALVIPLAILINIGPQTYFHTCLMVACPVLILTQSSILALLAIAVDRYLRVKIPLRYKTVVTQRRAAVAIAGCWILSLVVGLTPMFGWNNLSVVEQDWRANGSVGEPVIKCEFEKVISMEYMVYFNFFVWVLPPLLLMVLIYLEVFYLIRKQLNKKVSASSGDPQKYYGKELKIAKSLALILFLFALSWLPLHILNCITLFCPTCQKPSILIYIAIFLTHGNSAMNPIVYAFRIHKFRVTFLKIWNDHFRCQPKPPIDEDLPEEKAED
Experiment: Binding affinity against Adenosine A1 receptor using [3H]CHA in rat brain membranes
Assay type: cell membranes

Going from `OC[C@H]1O[C@@H](n2cnc3c(NC4C[C@H]5CC[C@@H]4C5)ncnc32)[C@H](O)[C@@H]1O` (some centres undefined) to `OC[C@H]1O[C@@H](n2cnc3c(N[C@@H]4C[C@@H]5CC[C@H]4C5)ncnc32)[C@H](O)[C@@H]1O`, the Ki rises from 0.91 nM to 1.65 nM (1.8-fold). The first binds more tightly here.

First: O[C@@H]1[C@H](O)[C@@H](CCl)O[C@H]1n1cnc2c(NC3CCCC3)ncnc21
Second: OC[C@H]1O[C@@H](n2cnc3c(NC4CC5CCC4C5)ncnc32)[C@H](O)[C@@H]1O (some centres undefined)
The Ki of the first is 1.7-fold higher: 0.72 nM for the first, 0.42 nM for the second. The second binds more tightly here.

Work on `OC[C@H]1O[C@@H](n2cnc3c(N[C@H]4CC5CCC4C5)ncnc32)[C@H](O)[C@@H]1O` (single isomer, unassigned) yielded a Ki of 0.3 nM.

Target: Adenosine A2 receptor (Rattus norvegicus, UniProt P29276+P30543)
Experiment: Binding affinity against Adenosine A2 receptor using [3H]NECA with 50 nM CPA in rat striatal brain membranes
Assay type: cell membranes, Membrane

`O[C@@H]1[C@H](O)[C@@H](CCl)O[C@H]1n1cnc2c(NC3C[C@H]4CCC3C4)ncnc21` (some centres undefined) and `O[C@@H]1[C@H](O)[C@@H](CCl)O[C@H]1n1cnc2c(N[C@@H]3C[C@@H]4CC[C@H]3C4)ncnc21` are within 1.5-fold of each other in Ki: 2100 nM for the first, 3000 nM for the second.

Compared with `O[C@@H]1[C@H](O)[C@@H](CCl)O[C@H]1n1cnc2c(N[C@H]3C[C@H]4CCC3C4)ncnc21`, `O[C@@H]1[C@H](O)[C@@H](CCl)O[C@H]1n1cnc2c(NC3CCCC3)ncnc21` is 2.1-fold lower in Ki: 3900 nM for the first, 1870 nM for the second.
